# Reference: US20020071842A1, “Soluble CD1 compositions and uses thereof” (priority 2000, published 2002)
# What was measured:
# [1] = test system: T cell clones that are not CD1d-restricted; assay: Flow cytometric staining with lipid treated multimerized CD1d-Fc aggregates; type: cell-based, human; details: flow cytometry; 4 T cell clones that are not CD1d-restricted
# Method: To facilitate binding to CD1 specific T cells for detection by flow cytometry, a highly multimerized form of the CD1d fusion protein was formed using fluorescently labeled protein A molecules. Protein A molecules spontaneously associate in solution at neutral pH with immunoglobulin Fc regions, forming complexes containing four Fc molecules and two protein A molecules (4+2 complexes, reference 2). The human CD1d-Fc fusion protein was incubated with Alexa 488 dye labeled protein A, and the 4+2 complexes purified by size exclusion chromatography on a Pharmacia Superose 6 column using PBS pH 7.2 as a running buffer. The purified 4+2 aggregates were concentrated to 100 μg/ml with ovalbumin as a carrier protein. The CD1d-Fc aggregate was then pre-incubated for 24 to 48 hours at 37° C. with antigenic glycolipids dissolved in DMSO at a 40:1 molar ratio of lipid to fusion protein, or with an equivalent volume of DMSO alone as a negative control. The T cell staining was performed at room temperature or 4° C. for 20 min, at a concentration of 40 μg/ml of the lipid or control treated CD1d-Fc aggregate.
# To facilitate binding to CD1 specific T cells for detection by flow cytometry, a highly multimerized form of the CD1d fusion protein is formed using fluorescently labeled protein A molecules. […]
# [2] = test system: α-GalCer reactive NKT cell hybridomas; assay: Plate-bound mCD1d fusion protein hybridoma stimulation assay, hybridoma panel; type: cell-based, mouse; details: some of the α-GalCer reactive NKT cell hybridomas
# Source text: Our observation that two NKT cell hybridomas, 24.8.A and 24.9.E, differed in their antigen reactivity, raised the possibility that NKT cells may have heterogeneous antigen specificities. To extend our analysis of NKT cells, and to compare antigen recognition by mCD1d-restricted T cells of the diverse TCR population, we tested 9 NKT and 8 diverse TCR mCD1d-restricted hybridomas for recognition of 14 purified and synthetic lipid antigens (see Tables 1 and 2). None of the hybridomas produced detectable IL-2 in response to a negative control protein, and only the 24.8.A hybridoma secreted detectable IL-2 in response to untreated mCD1d fusion protein (Table 2). Eight out of nine NKT cell hybridomas were potently stimulated by α-GalCer treated fusion protein, whereas none of the diverse TCR hybridomas reproducibly recognized this antigen (Table 2). […]
# IL-2 secreted in the hybridoma stimulation assays was quantitated in a double antibody sandwich ELISA, by comparison to a standard curve of purified murine IL-2 (Pharmingen, San Diego, Calif.). […] IL-2 was detected by addition of a biotinylated rat anti-mouse IL-2 antibody, followed by addition of a streptavidin-alkaline phophatase conjugate, and a chromogenic substrate. The pg/ml of IL-2 present in the hybridoma supernatants was quantitated by linear regression of the IL-2 standard curve.
compound,measurement,setting,value
"CCCCCCCCCCCCCCCCCCCCCCCCCC(=O)N[C@@H](CO[C@H]1O[C@H](CO)[C@H](O)[C@H](O)[C@H]1O)[C@H](O)[C@H](O)CCCCCCCCCCCCCC [α-GalCer, α-galactosylceramide]",staining of non-CD1d-restricted T cell clones by lipid treated CD1d fusion protein,[1],no staining
phosphatidylinositol [PI],activity relative to synthetic α-GalCer,[2],10-20%
